Data published in PubChem BioAssay (NCI).
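Grown in 96-well plates, cells were treated for 48 hours with each compound at five concentrations. Insufficient inhibition: endpoint recorded as highest concentration tested. Here, GI50 denotes the concentration required for 50% inhibition of growth. At the TGI there is no net growth.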

Legend:
Assay in all cases: growth of human tumour cells (NCI), 48 h
NCI-H23 lung = test system: NCI-H23 lung
OVCAR-5 ovarian = test system: OVCAR-5 ovarian
CCRF-CEM leukemia = test system: CCRF-CEM leukemia
NCI-H522 lung = test system: NCI-H522 lung
HCT-15 colon = test system: HCT-15 colon
EKVX NSCLC = test system: EKVX NSCLC
SK-MEL-28 melanoma = test system: SK-MEL-28 melanoma
K-562 leukemia = test system: K-562 leukemia
HCT-116 colon = test system: HCT-116 colon
RPMI-8226 leukemia = test system: RPMI-8226 leukemia
OVCAR-3 ovarian = test system: OVCAR-3 ovarian
A549 NSCLC = test system: A549 NSCLC
HT29 colon = test system: HT29 colon
M14 melanoma = test system: M14 melanoma
DU-145 prostate = test system: DU-145 prostate
HS 578T breast = test system: HS 578T breast

Row | Compound | TGI (NCI-H23 lung) | TGI (OVCAR-5 ovarian) | TGI (CCRF-CEM leukemia) | TGI (NCI-H522 lung) | TGI (HCT-15 colon) | TGI (EKVX NSCLC) | TGI (SK-MEL-28 melanoma) | TGI (K-562 leukemia) | TGI (HCT-116 colon) | TGI (RPMI-8226 leukemia) | TGI (OVCAR-3 ovarian) | TGI (A549 NSCLC) | TGI (HT29 colon) | TGI (M14 melanoma) | TGI (DU-145 prostate) | TGI (HS 578T breast) | GI50 (RPMI-8226 leukemia)
1 | CN(C(=O)c1ccc(OCCCC(=O)O)c(Cl)c1Cl)C1CCCC1 | > 100 µM | > 100 µM | > 100 µM | > 100 µM | > 100 µM | > 100 µM | > 100 µM | > 100 µM | > 100 µM | > 100 µM | > 100 µM | > 100 µM | > 100 µM | – | – | – | –
2 | O=C1NC(=S)NC(=O)C1=C/C=C/c1ccc([N+](=O)[O-])cc1 | 29.6 µM | 40.2 µM | – | – | 31.7 µM | 36.7 µM | 10.4 µM | > 100 µM | 37.2 µM | > 100 µM | 29.1 µM | 50.4 µM | 58.7 µM | 30.8 µM | 32.7 µM | 44.6 µM | –
3 | CCOC(=O)C1(Br)S(=O)(=O)OCCOS1(=O)=O | > 100 µM | > 100 µM | > 100 µM | > 100 µM | > 100 µM | > 100 µM | > 100 µM | > 100 µM | > 100 µM | > 100 µM | > 100 µM | > 100 µM | > 100 µM | > 100 µM | – | – | –
4 | O=c1ccnc2ccc3n[nH][nH]c3c12 | > 100 µM | > 100 µM | > 100 µM | – | > 100 µM | > 100 µM | > 100 µM | > 100 µM | > 100 µM | > 100 µM | > 100 µM | > 100 µM | > 100 µM | > 100 µM | – | – | –
5 | COC(=O)C1=C(CCC[C@H](C)O[Si](C)(C)C(C)(C)C)NC(=O)N2[C@@H](CCO)CC[C@H]12 | 27.2 µM | 33.7 µM | – | 19.2 µM | 28.9 µM | 26.1 µM | 35.5 µM | > 100 µM | 20 µM | 53.6 µM | 27.9 µM | 25.6 µM | 29.8 µM | 30.9 µM | 44.4 µM | – | –
6 | COc1cccc(NC(=O)C(=O)C2C=CCS2(=O)=O)c1 (configuration not stated) | > 100 µM | > 100 µM | > 100 µM | > 100 µM | > 100 µM | > 100 µM | > 100 µM | > 100 µM | > 100 µM | > 100 µM | > 100 µM | > 100 µM | > 100 µM | > 100 µM | – | – | –
7 | COc1c2c(cc3c1C(=O)Cc1ccc4c(c1CN(C)CC3)OCO4)OCO2 | > 100 µM | > 100 µM | > 100 µM | > 100 µM | > 100 µM | > 100 µM | > 100 µM | > 100 µM | > 100 µM | > 100 µM | > 100 µM | > 100 µM | > 100 µM | > 100 µM | – | – | –
8 | N#Cc1c(O)c2ccccc2[nH]c1=O | > 100 µM | > 100 µM | > 100 µM | > 100 µM | > 100 µM | > 100 µM | > 100 µM | > 100 µM | > 100 µM | > 100 µM | > 100 µM | > 100 µM | > 100 µM | > 100 µM | > 100 µM | – | –
9 | CCOC(=O)C(=O)NC12CC3CC(CC(C3)C1)C2 | > 100 µM | > 100 µM | > 100 µM | > 100 µM | > 100 µM | > 100 µM | > 100 µM | > 100 µM | > 100 µM | > 100 µM | – | > 100 µM | > 100 µM | > 100 µM | – | – | –
10 | COC(=O)C1(C)NCCc2c1[nH]c1ccccc21 (configuration not stated) | > 100 µM | > 100 µM | > 100 µM | > 100 µM | > 100 µM | > 100 µM | > 100 µM | > 100 µM | > 100 µM | > 100 µM | > 100 µM | > 100 µM | > 100 µM | > 100 µM | – | – | –
11 | CCCN(CCC)C1=Nc2ccccc2-n2cnnc2C1 | > 100 µM | > 100 µM | > 100 µM | > 100 µM | > 100 µM | > 100 µM | > 100 µM | > 100 µM | > 100 µM | > 100 µM | > 100 µM | > 100 µM | > 100 µM | > 100 µM | – | – | –
12 | O=C1/C(=C/c2ccc(Cl)cc2)CSC/C1=C\c1ccc(Cl)cc1 | 11.8 µM | 5.57 µM | 63.9 µM | 15.2 µM | > 100 µM | 41.7 µM | 5.51 µM | 10.1 µM | 3.69 µM | 5 µM | 8.11 µM | 10.1 µM | 4.81 µM | 3.92 µM | 24.8 µM | – | –
13 | CN(C)c1ccc(/C=C/c2cc(-c3ccccc3)[n+](C)n2-c2ccccc2)cc1 | 0.92 µM | 30.8 µM | – | 0.318 µM | 14.5 µM | 10.8 µM | > 34.6 µM | – | 14.1 µM | > 100 µM | 17.2 µM | 23.2 µM | > 100 µM | > 34.7 µM | 22.7 µM | 0.248 µM | –
14 | COc1cc(C=O)cc(O)c1O | > 100 µM | – | > 100 µM | > 100 µM | > 100 µM | > 100 µM | > 100 µM | > 100 µM | > 100 µM | > 100 µM | > 100 µM | > 100 µM | > 100 µM | > 100 µM | – | – | –
15 | CCCNC(=O)N1CC(CN2CCN(c3ccccc3)CC2)O/C1=N/C(=O)Nc1ccccc1 (configuration not stated) | > 100 µM | > 100 µM | – | > 100 µM | – | > 100 µM | > 100 µM | > 100 µM | > 100 µM | > 100 µM | – | > 100 µM | > 100 µM | > 100 µM | > 100 µM | > 100 µM | –
16 | CSCCC(C(=O)O)N(CC1(O)OCC(O)C(O)C1O)N=O (configuration not stated) | > 100 µM | > 100 µM | > 100 µM | > 100 µM | – | > 100 µM | > 100 µM | > 100 µM | > 100 µM | > 100 µM | > 100 µM | > 100 µM | > 100 µM | > 100 µM | – | – | –
17 | COc1ccc(-c2cc(=O)c3c(O)cc(O)cc3o2)c(OC)c1OC | > 100 µM | > 100 µM | > 100 µM | > 100 µM | – | > 100 µM | > 100 µM | > 100 µM | – | > 100 µM | > 100 µM | > 100 µM | > 100 µM | > 100 µM | – | – | –
18 | COc1cc(C2c3c(ccc4ccccc34)C(=O)C3CCC(=O)N32)cc(OC)c1O (configuration not stated) | > 25 µM | > 25 µM | > 25 µM | – | > 25 µM | > 25 µM | > 25 µM | > 25 µM | > 25 µM | > 25 µM | > 25 µM | > 25 µM | > 25 µM | > 25 µM | > 25 µM | – | –
19 | COC(=O)C1C=CCON2CCc3c(n(S(=O)(=O)c4ccccc4)c4ccccc34)C12 (configuration not stated) | > 100 µM | > 100 µM | > 71.1 µM | > 62.5 µM | > 72.9 µM | > 84.8 µM | > 100 µM | > 60.9 µM | > 80.7 µM | > 36 µM | > 100 µM | > 100 µM | > 100 µM | > 100 µM | – | – | –
20 | Cn1c(N=P(c2ccccc2)(c2ccccc2)c2ccccc2)c([N+](=O)[O-])c(=O)n(C)c1=O | > 100 µM | > 100 µM | 76.6 µM | > 100 µM | > 100 µM | > 100 µM | – | > 100 µM | > 100 µM | > 100 µM | > 100 µM | > 100 µM | > 100 µM | > 100 µM | – | > 100 µM | –
21 | O=c1c([OH2+])c(-c2ccc(O)cc2[O-])oc2cc(O)cc([O-])c12.O=c1c([OH2+])c(-c2ccc(O)cc2[O-])oc2cc(O)cc([O-])c12.[Ti+4] | > 100 µM | > 100 µM | > 100 µM | > 100 µM | > 100 µM | > 100 µM | > 100 µM | > 100 µM | > 100 µM | > 100 µM | > 100 µM | > 100 µM | > 100 µM | > 100 µM | – | – | > 100 µM
22 | CC1=C2C3OC(=O)C(C)C3CCC2(C)C=CC1=Nc1ccccc1 (configuration not stated) | > 100 µM | > 100 µM | > 100 µM | > 100 µM | > 100 µM | > 100 µM | > 100 µM | > 100 µM | > 100 µM | – | > 100 µM | > 100 µM | > 100 µM | – | – | – | –
23 | CN(C(=O)c1ccco1)C(=S)N1CCN(c2ccccn2)CC1 | > 100 µM | > 100 µM | > 100 µM | > 100 µM | > 100 µM | – | > 100 µM | > 100 µM | > 100 µM | > 100 µM | > 100 µM | > 100 µM | > 100 µM | > 100 µM | – | – | –
24 | O=C1CCCc2ccc3c(c21)CC1(Cc2ccccc2C1)C3 | > 100 µM | > 100 µM | – | 74.3 µM | > 100 µM | > 100 µM | – | 30 µM | 55.7 µM | 48.1 µM | 98.6 µM | > 100 µM | 45 µM | > 100 µM | – | > 100 µM | –
25 | C=C1Cc2cc(OC)c(OC)c(OC)c2-c2ccc(SC)c(=O)cc21 | 2.11 µM | 12.6 µM | 6.85 µM | < 0.01 µM | 1.17 µM | 18.8 µM | 7.88 µM | > 34.8 µM | – | 14.7 µM | < 0.01 µM | 19.5 µM | < 0.01 µM | – | – | – | –
26 | CCCNC(=O)N(C)C(=O)N1N=C(c2ccccc2)C1c1ccccc1 (configuration not stated) | > 100 µM | – | 75.8 µM | > 100 µM | > 100 µM | > 100 µM | > 100 µM | > 100 µM | > 100 µM | > 100 µM | > 100 µM | > 100 µM | – | > 100 µM | > 100 µM | – | –
